Experimental data from patent publication US20100267803A1, “Regulators Of Fat Metabolism As Anti-Cancer Targets” (The Research Foundation of State University Of New York, priority 2008, published 2010).

What was measured:
Format in all cases: cell-based, human
FASN mRNA = experiment: qRT-PCR of FASN mRNA in BT474 cells; conditions: shRNA or 20 μM GW9662 for 48 h
Description: (§1) FIG. 4 NR1D1 and PBP coordinate fatty acid metabolism in breast cancer cells. (a) BT474, MDA-MB-361, MCF-7 and HMEC cells were stained with Oil-Red O lipid and hematoxylin nuclear stains. (b) Fat stores were quantified by BODIPY 493/503 lipid probe staining (Error bars are s.d from 3 individual experiments). (c) FASN, ACLY, ACACA and FADS2 mRNA levels of BT474 cells treated with luciferase (control), PBP or NR1D1 shRNAs, or with vehicle and 20 μM of GW9662 for 48 h, analyzed by qRT-PCRs. (Error bars are s.d from 3 experiments; ***P<0.001, **P=0.005) (d) BT474 cells were transfected with FASN, ACLY and ACACA shRNAs and co-transfected with GFP. Transfected cells were counted at 24 h and 72 h and the 72h-to-24 h ratio for each shRNA was calculated and expressed as % of the control shRNA (luciferase). (Error bars are s.d from 3 individual experiments; **P<0.01, ***P<0.002). (e) BODIPY images and (f) quantification of BT474 cells transfected with luciferase (control), PBP or NR1D1 shRNAs and co-transfected with DsRed (Error bars are s.d from 3 individual experiments; ***P<0.03). Arrows indicate transfected cells.
(§2) Cell viability—apoptosis assays. […] At least 30 fields were imaged per single experiment. […] Immunoblotting. […] PCR reaction was run using standard conditions.

[1] = test system: ERBB2 overexpressing (BT474, MDA-MB-361) breast cancer cell lines; experiment: alamarBlue proliferation of shRNA-transfected ERBB2-overexpressing cell lines; conditions: shRNA transfection
Text: FIG. 1 An RNAi screen targeting genes overexpressed in breast cancer. (a) Three transfection mixes were produced for each shRNA and each was transfected into triplicate wells of BT474 cells. AlamarBlue was used to monitor cell proliferation and viability. […] (b) The genetic and functional linkage of NR1D1 and PBP. Mb refers to map position on chromosome 17. (c) ERBB2-overexpressing (OEX) and ERBB2 non-overexpressing (non-OEX) breast cancer cell lines as well as the (non-OEX) HMEC and HEK 293 cells were transfected and assayed as in (a). […] Genes clustered with ERBB2 are boxed.
To assess the specificity of effect of each shRNA on cell proliferation, those causing the greatest decrease in BT474 cell proliferation were transfected in a variety of cell lines, including ERBB2 overexpressing (BT474, MDA-MB-361) and nonoverexpressing breast cancer cell lines (MCF-7, MDA-MB-453, MDA-MB-468), normal human mammary epithelial cells (HMECs) and a non-breast tumorigenic cell line (HEK 293FT). […] PBP, NRID1 and PFN2 shRNAs clustered with ERBB2.
RNAi screen, transfections and constructs. The flag-RevErba (flag-NR1D1) overexpression construct was a generous gift of M. Lazar. The LSXN-neu* (ERBB2) overexpression construct was a generous gift of L. Petti. shRNA constructs were expressed from the pSHAG-MAGIC 2 (pSM2) vector and derived from a genome-wide shRNA library^31. ShRNAs targeting the firefly (Photinus pyralis) luciferase gene were used as controls. Transfection efficiency was monitored by co-transfection with a modified MSCV-Puro vector expressing green fluorescent protein (GFP). The alamarBlue (Biosource) assay was performed 96 h post-transfection, since BT474 cells have a population doubling time of ˜100 hours. […] For quantification of alamarBlue we used a BioTek HT Synergy plate reader. AlamarBlue values from the RNAi screens on other cell types were also calculated as above and subjected to hierarchical cluster analysis using Cluster 2.11 (M. Eisen Lab).

BT474 cells = experiment: Counts of GFP co-transfected BT474 cells (cell death / viability); conditions: shRNA co-transfected with GFP, counted up to 72 h
Description: Results are shown as percentage of control. (**P=0.03). (c) BT474 cells were transfected with luciferase (control), PBP and NR1D1 shRNAs and co-transfected with GFP. Green cells were counted at intervals and expressed as percentage of control. (Error bars are s.d from 3 individual experiments; *P<0.08, **P<0.03, ***P<0.005). (d) BT474 cells were transfected with luciferase (control), PBP or NR shRNAs for 48 h. Immunofluorescence was performed for cleaved Caspase-3 signal; cell nuclei were stained with Hoechst 33243. (e) Cells from […] were counted for cleaved Caspase-3 signal. (Error bars are s.d from 3 individual experiments; ***P<0.0003). (f) BT474 cells were transfected with luciferase (control) PBP, NR1D1 or PBP and NR1D1 shRNAs together and co-transfected with GFP. Transfected cells were counted at 24 h and 72 h and the 72 h-to-24 h ratio for each shRNA was calculated and expressed as % of the control shRNA (luciferase). (Error bars are s.d from 3 individual experiments; **P=0.01, ***P<0.002). (g) Cells from (f) were counted for cleaved Caspase-3 signal. (Error bars are s.d from 3 individual experiments; ***P<0.0001). (h) ERBB2 mRNA levels of BT474 cells transfected with luciferase (control), PBP or NR1D1 shRNAs for 48 h, analyzed by qRT-PCRs. (Error bars are s.d from 3 individual experiments; ***P=0.0001).
as §1
FIG. 5. (a) MDH1 and ME1 mRNA levels of BT474 cells treated with luciferase (control), PBP or NR1D1 shRNAs for 48 h, analyzed by qRT-PCRs. (Error bars are s.d from 3 experiments; **P<0.002 (b) BT474 and MCF-7 cells were transfected with luciferase (control) MDH1 and ME1 shRNAs (Error bars are s.d from 3 individual experiments; ***P=0.0003). (c) BT474 cells) assayed for cleaved Caspase-3 signal by immunofluorescence 48 h after transfection; cell nuclei were stained with Hoechst 33243. (d) Quantification of cleaved Caspase-3 signal from cells in (c). (Error bars are s.d from 3 individual experiments; ***P<0.005). (e) Enzymes involved in fatty acid synthesis and storage that are regulated by NR1D1 and PBP and their proposed contribution to energy production necessary for survival of ERBB2-positive breast cancer cells.
as §2

Q: With “NR1D1 shRNA: shRNA, mature sequence GGCATGGTGTTACTGTGTA (shRNA)” as the substance, how does the FASN transcript level (FASN mRNA) read?
A: reduced

Q: What about the “viability of ERBB2-positive cells” value [1] of the same substance?
A: specifically decreased the viability of ERBB2-positive cells

Q: And the “cell death / viability (cell number of transfected cells)” value (BT474 cells)?
A: time-dependent decrease of cell number

Q: Which FASN transcript level (FASN mRNA) does the source give for “PBP shRNA: shRNA, mature sequence CCGAGTTCCTCTTATCCTA (shRNA)” here?
A: reduced

Q: What about the “viability of ERBB2-positive cells” value [1] of the same substance?
A: specifically decreased the viability of ERBB2-positive cells

Q: What about the “cell death / viability (cell number of transfected cells)” value (BT474 cells) of the same substance?
A: time-dependent decrease of cell number
